Results from patent US9572820B2, “Methods of treating autophagy-associated disorders and related pharmaceutical compositions, diagnostics, screening techniques and kits” (priority 2011, dated 2017).

Assays:
[1] = tested on: IL-1β; test: IL-1β secretion from LPS-pretreated BMMs (ELISA); type: cell-based, murine; details: nigericin, 100 nM bafilomycin A1, 1 h
Protocol: FIG. 1X3. induction of autophagy enhances IL-1β secretion. (A) Atg5fl/fl Cre^− and Atg^5fl/fl Cre^+ bone marrow-derived macrophages (BMMs), pretreated overnight with 100 ng/ml LPS, were stimulated for 1 h with the inflammasome agonist nigericin ([…]) with (Starvation; EBSS) or without (Full; full medium) autophagic induction. Cell culture supernatants were assayed for murine IL-1β by ELISA. Data represent mean values±s.d. (nX3); *Po0.05. (B) LPS-pretreated Atg5fl/fl Cre^− and Atg^5fl/fl Cre^+ BMMs were stimulated with […] nigericin for 1 h in OptiMEM and the release of active caspase-1 and IL-1β was determined by immunoblotting. (C) As in (A), assayed for IL-18. Data represent mean values±s.d. (nX3); *Po0.05. (D) LPS-pretreated BMMs were exposed to alum ([…]) for 1 h with or without autophagic induction by starvation. Secreted IL-1β was measured as in (A). Data represent mean values±s.d. (nX3); *Po0.05. (E) LPS-pretreated BMMs were exposed to silica ([…]) for 1 h with or without autophagic induction by starvation. Secreted IL-1β was measured as in (A). Data represent mean values±s.d. (nX3); *Po0.05. (F) BMMs were transfected with scramble (Scr) control siRNA or siRNAs against ASC and NLRP3. After 48 h following transfection, cells were treated overnight with LPS and subjected to nigericin ([…]) and starvation for 1 h. Data represent mean values±s.d. (nX3); *Po0.05. (G) Immunoblot analysis of ASC and NLRP3 knockdowns. (H) BMMs were transfected with scramble
FIG. 2X3 Autophagic pathway progression promotes secretion of inflammasome substrates. (A, B) LPS-pretreated BMMs were treated with […] nigericin (Nig) and 100 nM bafilomycin A1 (Baf) with (Starvation) or without (Full) autophagic induction for 1 h and secreted IL-1β (A) and IL-18 (B) were measured. Data represent mean values+s.d. (nX3); *Po0.05. (C) LPS-pretreated BMMs were treated with […] of silica and 100 nM bafilomycin A1 (Baf) with (Starvation) or without (Full) autophagic induction for 1 h and secreted IL-1β were measured. Data represent mean values±s.d. (nX3); *Po0.05. (D) Colocalization of cathepsin B with the basal autophagic machinery factor LC3 and IL-1b. Fluorescence; LC3 (green, Alexa488), IL-1β (red, Alexa568), and cathepsin B (blue, Alexa633). BMMs from GFP-LC3 knockin mice were treated with LPS and then analysed for immunofluorescence. (E) Colocalization line tracing analysis from images in (D). (F) LPS-pretreated BMMs were treated with […] nigericin and cathepsin B inhibitor CA-074 Me […] , with (Starvation) or without (Full) autophagic induction, for 1 h and secreted IL-1β was measured. […] (G) LPS-pretreated Atg^5fl/fl Cr^+ and Atg^5fl/fl Cre^− BMMs were stimulated with […] nigericin for 1 h in OptiMEM and release of cathepsin B was determined by immunoblotting. […]

[2] = tested on: BMM; test: Confocal quantification of cells positive for LC3 and IL-1α puncta; type: cell-based, murine; details: Atg5+ BMM, LPS+IFN-γ, 90 min EBSS
Protocol: (A,B) IL-1α (ELISA) released from LPS+IFN-γ stimulated Atg5^fl/fl LysM-Cre+ and Atg5^fl/fl LysM-Cre− BMM in the presence of 50 μg/ml rapamycin (Rap), 10 mM 3-MA, or 100 nM Bafilomycin A1 (Baf A1) after 12 h of stimulation. (C) IL-1α (ELISA) in culture supernatants of cells as in A, treated with calpain inhibitor, ALLN (100 μM). (D-F) Images and quantification of cells positive for LC3-only, IL-1α-only or LC3+IL-1α. Cells, wild type (Atg5+) BMM stimulated with LPS+IFN-γ and incubated for 90 min in EBSS in the absence (D, control) or presence (E, Baf A1) of bafilomycin A1. Cutoff for cells to be considered positive: >6 red or green puncta. Red arrowheads, IL-1α+ LC3− cells; green arrowheads, IL-1α− LC3+ cells; 10 μm.
For confocal microscopy, BMM were stained with mouse anti-GFP (Abeam, 10 μg/ml) to enhance LC3-GFP visualization, rabbit anti-caspase 1 (Santa Cruz Biotechnology), rabbit anti-calpain 1 (Cell Signaling Technology), or hamster anti-IL-1α (eBioscience) followed by secondary antibodies. Pearson's colocalization coefficients were derived using SLIDEBOOK 5.0 (Intelligent Imaging Innovations) applying the SLIDEBOOK 5 default algorithm command ‘AND’. All Pearson's coefficients were derived from three independent experiments with five fields or more per experiment, for a total of 15 fields contributing to the cumulative result.

## CO/C1=C\C(C)=C\[C@@H](C)[C@@H](O)[C@@H](C)C/C(C)=C/C=C/[C@H](OC)[C@@H]([C@@H](C)[C@@H](O)[C@H](C)[C@@]2(O)C[C@@H](O)[C@H](C)[C@@H](C(C)C)O2)OC1=O [bafilomycin A1]
[1]; basal autophagy only (full medium)
  IL-1β secretion: no change
[1]; starvation
  IL-1β secretion: decreased IL-1β secretion
[2]
  number of cells positive for both IL-1α and LC3: increased
